Source: ChEMBL document CHEMBL4665654, “Design, synthesis and evaluation of antiproliferative activity of fluorinated betulinic acid” (Bioorg Med Chem, 2019)
Active and inactive are the calls of the source. The rule behind the calls is not given here.

Assays:
[1] = Antiproliferative activity against human KB-VIN cells assessed as cell growth inhibition after 72 hrs by sulforhodamine B assay; assay type: functional, cell-based; conditions: KBVIN
[2] = system: A549; assay: Antiproliferative activity against human A549 cells assessed as cell growth inhibition after 72 hrs by sulforhodamine B assay; assay type: functional, cell-based; conditions: A549, 72 h
[3] = system: MDA-MB-231; assay: Antiproliferative activity against human MDA-MB-231 cells assessed as cell growth inhibition after 72 hrs by sulforhodamine B assay; assay type: functional, cell-based; conditions: MDA-MB-231, 72 h
[4] = system: KB; assay: Antiproliferative activity against human KB cells assessed as cell growth inhibition after 72 hrs by sulforhodamine B assay; assay type: functional, cell-based
[5] = system: MCF7; assay: Antiproliferative activity against human MCF7 cells assessed as cell growth inhibition after 72 hrs by sulforhodamine B assay; assay type: functional, cell-based; conditions: MCF7, 72 h
[6] = system: MCF7; assay: Modulation of DNA replication associated gene expression in human MCF7 cells at 40 uM after 24 hrs by cDNA microarray analysis; assay type: functional, cell-based
[7] = system: MCF-10A; assay: Cytotoxicity against human MCF-10A cells assessed as cell viability at 10 uM after 72 hrs by MTT assay; assay type: cell-based
[8] = Cytotoxicity against human MCF-10A cells assessed as cell viability at 30 uM after 72 hrs by MTT assay; assay type: cell-based; conditions: read-out: Activity
[9] = system: MCF7; assay: Antiproliferative activity against human MCF7 cells assessed as cell killing at 30 uM after 72 hrs by MTT assay; assay type: functional
[10] = system: MCF7; assay: Inhibition of colony formation in human MCF7 cells at 10 to 40 uM of compound exposure followed by compound washout and subsequent incubation for 3 weeks by crystal violet staining based assay; assay type: functional, cell-based; conditions: dose microM 10-40
[11] = system: MCF7; assay: Induction of apoptosis in human MCF7 cells incubated for 24 to 72 hrs by Annexin V-FITC/propidium iodide staining-based flow cytometric analysis; assay type: functional, cell-based; conditions: dose microM 20-40, time hrs 24-72
[12] = system: MCF7; assay: Induction of apoptosis in human MCF7 cells at 20 to 40 uM by Annexin V-FITC/propidium iodide staining-based flow cytometric analysis; assay type: functional, cell-based; conditions: dose microM 20-40, time hrs 24-72, TDE = time-dependent effect
[13] = system: MCF7; assay: Induction of apoptosis in human MCF7 cells assessed as increase in cleaved caspase-9 protein expression at 20 to 40 uM incubated for 72 hrs by Western blot analysis; assay type: functional, cell-based; conditions: dose microM 20-40, time 72.0 hrs
[14] = system: MCF7; assay: Induction of apoptosis in human MCF7 cells assessed as increase in cleaved caspase-7 protein expression at 20 to 40 uM incubated for 72 hrs by Western blot analysis; assay type: functional, cell-based; conditions: dose microM 20-40, time 72.0 hrs
[15] = system: MCF7; assay: Induction of apoptosis in human MCF7 cells assessed as increase in cleaved PARP protein expression at 20 to 40 uM incubated for 72 hrs by Western blot analysis; assay type: functional, cell-based; conditions: dose microM 20-40, time 72.0 hrs
[16] = molecular target: T1, DNA topoisomerase 1 (Homo sapiens) (UniProt P11387); assay: Inhibition of topoisomerase 1 in human MCF7 cells nuclear extract assessed as decrease in relaxation/nicking of supercoiled DNA using supercoiled DNA as substrate at 40 uM after 1 hr by ethidium bromide staining based agarose gel electrophoresis analysis; assay type: subcellular; conditions: Nucleus
T1 sequence (whole entry): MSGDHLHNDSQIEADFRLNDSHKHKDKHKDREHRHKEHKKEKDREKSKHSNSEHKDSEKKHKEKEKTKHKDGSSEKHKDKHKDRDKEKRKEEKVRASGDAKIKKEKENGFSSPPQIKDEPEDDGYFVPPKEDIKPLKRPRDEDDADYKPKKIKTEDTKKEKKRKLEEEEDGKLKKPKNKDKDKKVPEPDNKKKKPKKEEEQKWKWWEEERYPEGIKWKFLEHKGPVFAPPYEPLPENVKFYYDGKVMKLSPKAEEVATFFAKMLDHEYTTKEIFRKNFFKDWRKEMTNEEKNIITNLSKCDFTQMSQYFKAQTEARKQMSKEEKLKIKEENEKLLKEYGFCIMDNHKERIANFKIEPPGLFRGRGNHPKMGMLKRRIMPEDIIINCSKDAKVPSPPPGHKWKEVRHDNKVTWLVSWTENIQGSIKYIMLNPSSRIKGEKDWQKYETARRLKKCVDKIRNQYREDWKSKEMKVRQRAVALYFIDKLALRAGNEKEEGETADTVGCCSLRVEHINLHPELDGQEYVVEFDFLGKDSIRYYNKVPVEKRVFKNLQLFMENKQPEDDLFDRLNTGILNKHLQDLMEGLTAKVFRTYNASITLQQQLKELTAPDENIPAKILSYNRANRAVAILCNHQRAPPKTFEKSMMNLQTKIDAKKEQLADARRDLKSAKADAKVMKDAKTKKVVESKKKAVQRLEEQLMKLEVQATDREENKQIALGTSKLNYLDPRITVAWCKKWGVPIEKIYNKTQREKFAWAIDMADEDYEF

[17] = molecular target: DNA topoisomerase 2-alpha (Homo sapiens) (UniProt P11388); assay: Inhibition of topoisomerase-2alpha in human MCF7 cells nuclear extract assessed as decrease in relaxation/nicking of kinetoplast DNA using kDNA as substrate at 40 uM after 15 mins by ethidium bromide staining based agarose gel electrophoresis analysis; assay type: subcellular; conditions: Nucleus
Sequence of DNA topoisomerase 2-alpha (Homo sapiens) (P11388 whole entry): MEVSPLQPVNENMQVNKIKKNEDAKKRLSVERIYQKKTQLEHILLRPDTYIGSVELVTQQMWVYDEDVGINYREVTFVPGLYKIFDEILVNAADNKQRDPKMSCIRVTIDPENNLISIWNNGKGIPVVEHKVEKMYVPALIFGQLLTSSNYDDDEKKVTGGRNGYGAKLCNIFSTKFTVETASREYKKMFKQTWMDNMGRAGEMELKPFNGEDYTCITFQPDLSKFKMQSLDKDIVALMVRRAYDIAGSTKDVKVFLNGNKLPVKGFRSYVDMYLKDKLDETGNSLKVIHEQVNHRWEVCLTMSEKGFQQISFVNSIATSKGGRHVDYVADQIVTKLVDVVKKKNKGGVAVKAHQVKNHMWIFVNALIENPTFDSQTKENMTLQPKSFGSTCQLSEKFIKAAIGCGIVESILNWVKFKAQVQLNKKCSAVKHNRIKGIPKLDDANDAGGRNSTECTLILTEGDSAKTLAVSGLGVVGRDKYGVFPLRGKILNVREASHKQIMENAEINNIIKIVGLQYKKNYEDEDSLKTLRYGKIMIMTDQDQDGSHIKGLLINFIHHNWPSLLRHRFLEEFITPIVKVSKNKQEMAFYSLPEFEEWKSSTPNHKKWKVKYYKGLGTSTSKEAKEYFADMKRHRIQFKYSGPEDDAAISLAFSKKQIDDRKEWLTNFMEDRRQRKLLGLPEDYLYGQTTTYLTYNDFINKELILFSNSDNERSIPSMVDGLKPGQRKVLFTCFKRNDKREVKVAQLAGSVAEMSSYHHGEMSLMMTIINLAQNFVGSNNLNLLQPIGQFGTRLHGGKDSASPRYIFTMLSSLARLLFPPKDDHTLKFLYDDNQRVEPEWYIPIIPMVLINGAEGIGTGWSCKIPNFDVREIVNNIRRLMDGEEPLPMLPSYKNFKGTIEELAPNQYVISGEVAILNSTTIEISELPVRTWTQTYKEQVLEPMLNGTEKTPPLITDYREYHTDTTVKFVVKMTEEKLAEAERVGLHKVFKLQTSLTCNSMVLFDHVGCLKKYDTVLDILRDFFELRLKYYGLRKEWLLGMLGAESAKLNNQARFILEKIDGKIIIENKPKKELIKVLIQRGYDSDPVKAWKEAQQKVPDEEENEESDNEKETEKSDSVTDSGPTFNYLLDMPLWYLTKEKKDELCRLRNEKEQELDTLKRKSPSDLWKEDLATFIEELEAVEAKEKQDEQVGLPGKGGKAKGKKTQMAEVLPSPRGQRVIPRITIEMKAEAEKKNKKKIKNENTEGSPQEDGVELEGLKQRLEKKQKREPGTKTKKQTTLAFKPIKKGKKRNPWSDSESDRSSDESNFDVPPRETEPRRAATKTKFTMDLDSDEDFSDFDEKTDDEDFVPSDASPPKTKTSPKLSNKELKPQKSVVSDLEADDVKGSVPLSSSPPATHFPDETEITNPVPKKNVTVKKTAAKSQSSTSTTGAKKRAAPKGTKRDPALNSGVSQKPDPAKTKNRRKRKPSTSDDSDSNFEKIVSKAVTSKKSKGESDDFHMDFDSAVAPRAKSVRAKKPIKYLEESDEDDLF

[18] = molecular target: T1, DNA topoisomerase 1 (Homo sapiens); assay: Inhibition of recombinant human topoisomerase 1 assessed as decrease in relaxation/nicking of supercoiled DNA using supercoiled DNA as substrate at 10 uM after 1 hr by ethidium bromide staining based agarose gel electrophoresis analysis
[19] = molecular target: T1, DNA topoisomerase 1 (Homo sapiens); assay: Inhibition of recombinant human topoisomerase 1 assessed as decrease in relaxation/nicking of supercoiled DNA using supercoiled DNA as substrate after 1 hr by ethidium bromide staining based agarose gel electrophoresis analysis; conditions: dose microM 1-30, time 1.0 hrs
[20] = molecular target: T1, DNA topoisomerase 1 (Homo sapiens); assay: Inhibition of recombinant human topoisomerase 1 assessed as decrease in relaxation/nicking of supercoiled DNA using supercoiled DNA as substrate at 3 uM after 1 hr by ethidium bromide staining based agarose gel electrophoresis analysis
[21] = molecular target: DNA topoisomerase 2-alpha (Homo sapiens) (UniProt P11388); assay: Inhibition of recombinant human topoisomerase-2alpha assessed as decrease in relaxation/nicking of kinetoplast DNA using kDNA as substrate after 15 mins by ethidium bromide staining based agarose gel electrophoresis analysis; conditions: dose microM 30-100, time 15.0 min
[22] = molecular target: DNA topoisomerase 2-alpha (Homo sapiens) (UniProt P11388); assay: Inhibition of recombinant human topoisomerase-2alpha assessed as decrease in relaxation/nicking of kinetoplast DNA using kDNA as substrate at 30 uM after 15 mins by ethidium bromide staining based agarose gel electrophoresis analysis
[23] = system: MCF7; assay: Modulation of DNA repair related gene expression in human MCF7 cells at 40 uM after 24 hrs by cDNA microarray analysis; assay type: functional, cell-based

| Structure (SMILES) | IC50 [1] | IC50 [2] | IC50 [3] | IC50 [4] | IC50 [5] | other results |
| --- | --- | --- | --- | --- | --- | --- |
| CC(=O)O[C@H]1C(=O)[C@@]2(C)[C@H]([C@H](OC(=O)c3ccccc3)[C@]3(O)C[C@H](OC(=O)[C@H](O)[C@@H](NC(=O)c4ccccc4)c4ccccc4)C(C)=C1C3(C)C)[C@]1(OC(C)=O)CO[C@@H]1C[C@@H]2O [PACLITAXEL] | 2.9 µM |  |  |  |  |  |
| C=C(C)[C@@H]1CC[C@]2(C(=O)OCc3ccc(Cl)cc3)CC[C@]3(C)[C@H](CC[C@@H]4[C@@]5(C)CC[C@@](O)(C(F)(F)F)C(C)(C)[C@@H]5CC[C@]43C)[C@@H]12 | > 40 µM | > 40 µM | > 40 µM | > 40 µM | > 40 µM |  |
| C=C(C)[C@@H]1CC[C@]2(C(=O)OCc3ccc(Cl)cc3)CC[C@]3(C)[C@H](CC[C@@H]4[C@@]5(C)C[C@H](F)C(=O)C(C)(C)[C@@H]5CC[C@]43C)[C@@H]12 | > 40 µM | > 40 µM | > 40 µM | > 40 µM | > 40 µM |  |
| C=C(C)[C@@H]1CC[C@]2(C(=O)O)CC[C@]3(C)[C@H](CC[C@@H]4[C@@]5(C)CC[C@@](O)(C(F)(F)F)C(C)(C)[C@@H]5CC[C@]43C)[C@@H]12 | 6 µM | 5.4 µM | > 10 µM | 5.9 µM | 7.8 µM |  |
| C=C(C)[C@@H]1CC[C@]2(C(=O)O)CC[C@]3(C)[C@H](CC[C@@H]4[C@@]5(C)CC(F)[C@H](O)C(C)(C)[C@@H]5CC[C@]43C)[C@@H]12 (mixture of isomers) | 7 µM | 6.1 µM | 11 µM | 6.5 µM | 9.2 µM | Activity [6]: Active; Activity [7]: Non-Toxic; viability at 72 h, 30 µM [8]: 80%; Activity [9]: >80%; inhibition [10]: Active; Activity [11]: Dose-dependent effect; Activity [12]: Tde; Activity [13]: Active; Activity [14]: Active; Activity [15]: Active; inhibition [16]: Active; inhibition [17]: Active; inhibition [18]: Active; inhibition [19]: Dose-dependent effect; inhibition [20]: Active; inhibition [21]: Dose-dependent effect; inhibition [22]: Active; Activity [23]: Active |
| C=C(C)[C@@H]1CC[C@]2(C(=O)O)CC[C@]3(C)[C@H](CC[C@@H]4[C@@]5(C)C[C@@H](F)[C@H](O)C(C)(C)[C@@H]5CC[C@]43C)[C@@H]12 | 6.7 µM | 5.6 µM | 9 µM | 6.7 µM | 15.3 µM |  |
| C=C(C)[C@@H]1CC[C@]2(C(=O)OC)CC[C@]3(C)[C@H](CC[C@@H]4[C@@]5(C)CC[C@@](O)(C(F)(F)F)C(C)(C)[C@@H]5CC[C@]43C)[C@@H]12 | > 10 µM | > 10 µM | > 10 µM | > 10 µM | > 10 µM |  |
| C=C(C)[C@@H]1CC[C@]2(C(=O)O)CC[C@]3(C)[C@H](CC[C@@H]4[C@@]5(C)CC(F)[C@H](OC(=O)CC(C)(C)C(=O)O)C(C)(C)[C@@H]5CC[C@]43C)[C@@H]12 (some centres undefined) | > 10 µM | > 10 µM | > 10 µM | > 10 µM | > 10 µM |  |
